{"source": "patent US20250050042A1", "about": "“DRY POWDER FORMULATIONS FILLED IN AN INHALER WITH IMPROVED RESISTANCE TO HUMIDITY” (CHIESI FARMACEUTICI S.P.A., priority 2021, published 2025)", "key": {"[1]": {"assay": "Aerosol performance by Next Generation Impactor (Example 4)", "type": "physicochemical", "design": "MDD: unit not given beside the values", "details": "mean; for FPM: particles equal to or lower than 5.0 micron"}, "[2]": {"assay": "In-use stability of aerosol performance (FPM drop, NGI) on storage at 30° C. and 75% relative humidity", "type": "physicochemical", "details": "in use at 30° C./75%"}, "[3]": {"details": "Sample A (coarse lactose batch A)"}, "[4]": {"details": "Sample A (coarse lactose batch A, tapped density 0.72)"}, "[5]": {"details": "Sample B (coarse lactose batch B)"}, "[6]": {"details": "Sample B (coarse lactose batch B, tapped density 0.69)"}, "[7]": {"details": "second block of Table 1 without sub-heading (co-micronization formulation), T = 0 + 1 M"}, "[8]": {"details": "second block of Table 1 without sub-heading (co-micronization formulation), T = 0 + 2 M"}, "[9]": {"details": "second block of Table 1 without sub-heading (co-micronization formulation), T = 0 + 3 M"}, "[10]": {"details": "simple mixing process formulation, T = 0 + 1 M, mean values"}, "[11]": {"details": "simple mixing process formulation, T = 0 + 1.5 M, mean values"}, "[12]": {"details": "simple mixing process formulation, T = 0 + 2 M, mean values"}, "[13]": {"details": "simple mixing process formulation, T = 0 + 3 M, mean values"}}, "note": "Counter-ions that a name gives are not always drawn."}
{"compound": "C[N+]1(C)CCC(OC(=O)C(O)(c2ccccc2)C2CCCC2)C1", "note": "(centres unmarked) [GB, glycopyrronium bromide]", "values": [{"measurement": "DD", "setting": "[1]; [3]", "result": 11.4}, {"measurement": "FPF", "setting": "[1]; [3]", "result": 41.3, "unit": "%"}, {"measurement": "MDD", "setting": "[1]; [3]", "result": 11.7}, {"measurement": "FPM", "setting": "[1]; [4]", "result": 4.8}, {"measurement": "DD", "setting": "[1]; [5]", "result": 11.0}, {"measurement": "FPF", "setting": "[1]; [5]", "result": 30.9, "unit": "%"}, {"measurement": "MDD", "setting": "[1]; [5]", "result": 11.1}, {"measurement": "FPM", "setting": "[1]; [6]", "result": 3.4}, {"measurement": "FPM drop (%)", "setting": "[2]; [7]", "result": "−7.8", "unit": "%"}, {"measurement": "FPM drop (%)", "setting": "[2]; [8]", "result": "−19.1", "unit": "%"}, {"measurement": "FPM drop (%)", "setting": "[2]; [9]", "result": "−20.7", "unit": "%"}, {"measurement": "FPM drop (%)", "setting": "[2]; [10]", "result": "−24.5", "unit": "%"}, {"measurement": "FPM drop (%)", "setting": "[2]; [11]", "result": "−36.5", "unit": "%"}, {"measurement": "FPM drop (%)", "setting": "[2]; [12]", "result": "−29.5", "unit": "%"}, {"measurement": "FPM drop (%)", "setting": "[2]; [13]", "result": "−33.1", "unit": "%"}]}
{"compound": "CCC(=O)OCC(=O)[C@@]1(OC(=O)CC)[C@@H](C)C[C@H]2[C@@H]3CCC4=CC(=O)C=C[C@]4(C)[C@@]3(Cl)[C@@H](O)C[C@@]21C", "note": "[BDP, (8S,9R,10S,11S,13S,14S,16S,17R)-9-chloro-11-hydroxy-10,13,16-trimethyl-3-oxo-17-[2-(propionyloxy)acetyl]-6,7,8,9,10,11,12,13,14,15,16,17-dodecahydro-3H-cyclopenta[a]phenanthren-17-yl propionate]", "values": [{"measurement": "DD", "setting": "[1]; [3]", "result": 90.4}, {"measurement": "FPF", "setting": "[1]; [3]", "result": 45, "unit": "%"}, {"measurement": "MDD", "setting": "[1]; [3]", "result": 92.4}, {"measurement": "FPM", "setting": "[1]; [4]", "result": 41.6}, {"measurement": "DD", "setting": "[1]; [5]", "result": 88.6}, {"measurement": "FPF", "setting": "[1]; [5]", "result": 33.4, "unit": "%"}, {"measurement": "MDD", "setting": "[1]; [5]", "result": 88.5}, {"measurement": "FPM", "setting": "[1]; [6]", "result": 29.5}, {"measurement": "FPM drop (%)", "setting": "[2]; [7]", "result": "−10.4", "unit": "%"}, {"measurement": "FPM drop (%)", "setting": "[2]; [8]", "result": "−20.3", "unit": "%"}, {"measurement": "FPM drop (%)", "setting": "[2]; [9]", "result": "−19.6", "unit": "%"}, {"measurement": "FPM drop (%)", "setting": "[2]; [10]", "result": "−22.1", "unit": "%"}, {"measurement": "FPM drop (%)", "setting": "[2]; [11]", "result": "−30.5", "unit": "%"}, {"measurement": "FPM drop (%)", "setting": "[2]; [12]", "result": "−26.3", "unit": "%"}, {"measurement": "FPM drop (%)", "setting": "[2]; [13]", "result": "−30.2", "unit": "%"}]}
{"compound": "COc1ccc(CC(C)NCC(O)c2ccc(O)c(NC=O)c2)cc1", "note": "(centres unmarked) [FF, formoterol fumarate dihydrate]", "values": [{"measurement": "DD", "setting": "[1]; [3]", "result": 5.6}, {"measurement": "FPF", "setting": "[1]; [3]", "result": 48.4, "unit": "%"}, {"measurement": "MDD", "setting": "[1]; [3]", "result": 5.6}, {"measurement": "FPM", "setting": "[1]; [4]", "result": 2.7}, {"measurement": "DD", "setting": "[1]; [5]", "result": 5.4}, {"measurement": "FPF", "setting": "[1]; [5]", "result": 36.8, "unit": "%"}, {"measurement": "MDD", "setting": "[1]; [5]", "result": 5.4}, {"measurement": "FPM", "setting": "[1]; [6]", "result": 2.0}]}
